Results: PubChem BioAssay AID330 (DTP/NCI, 2004)
Several values for one entry are separate records, joined by “and”; a condition that tells them apart may be missing. Identical values can stand only once. Toxic doses and inconclusive results are not listed.

Test system: P388 leukemia ip, CD2F1 mice, survival T/C
Experiment: NCI In Vivo Anticancer Drug Screen. Data for tumor model P388 Leukemia (intraperitoneal) in CD2F1 (CDF1) mice
Settings: endpoint: median survival time, higher = longer survival
Procedure, shortened: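 Mice carrying the transplanted tumor received test compound or vehicle. Survival was recorded in each group, and the value is the treated-group measurement divided by that of the vehicle-treated control group.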

[1] = dose: 100.0 mg/kg/injection, schedule: Q01DX001 (ip), vehicle: Klucel (hydroxypropylcellulose) (HPC)
[2] = dose: 200.0 mg/kg/injection, schedule: Q01DX001 (ip), vehicle: Klucel (hydroxypropylcellulose) (HPC)
[3] = dose: 400.0 mg/kg/injection, schedule: Q01DX001 (ip), vehicle: Klucel (hydroxypropylcellulose) (HPC)
[4] = dose: 50.0 mg/kg/injection, schedule: Q01DX005 (ip), vehicle: Klucel (hydroxypropylcellulose) (HPC)
[5] = dose: 100.0 mg/kg/injection, schedule: Q01DX005 (ip), vehicle: Klucel (hydroxypropylcellulose) (HPC)
[6] = dose: 200.0 mg/kg/injection, schedule: Q01DX005 (ip), vehicle: Klucel (hydroxypropylcellulose) (HPC)
[7] = dose: 25.0 mg/kg/injection, schedule: Q01DX005 (ip), vehicle: saline
[8] = dose: 100.0 mg/kg/injection, schedule: Q01DX001 (ip), vehicle: saline
[9] = dose: 200.0 mg/kg/injection, schedule: Q01DX001 (ip), vehicle: saline
[10] = dose: 400.0 mg/kg/injection, schedule: Q01DX001 (ip), vehicle: saline
[11] = dose: 25.0 mg/kg/injection, schedule: Q01DX009 (ip), vehicle: saline with Tween-80
[12] = dose: 50.0 mg/kg/injection, schedule: Q01DX009 (ip), vehicle: saline with Tween-80
[13] = dose: 100.0 mg/kg/injection, schedule: Q01DX009 (ip), vehicle: saline with Tween-80
[14] = dose: 6.25 mg/kg/injection, schedule: Q01DX005 (ip), vehicle: Klucel (hydroxypropylcellulose) (HPC)
[15] = dose: 12.5 mg/kg/injection, schedule: Q01DX005 (ip), vehicle: Klucel (hydroxypropylcellulose) (HPC)
[16] = dose: 25.0 mg/kg/injection, schedule: Q01DX005 (ip), vehicle: Klucel (hydroxypropylcellulose) (HPC)
[17] = dose: 50.0 mg/kg/injection, schedule: Q01DX009 (ip), vehicle: Klucel (hydroxypropylcellulose) (HPC)

CC(=O)OC1CC2(OC(C)=O)CC(OC2=O)C1OC(C)=O (configuration not stated)
T/C [1]: 100 % of control
T/C (dose: 100.0 mg/kg/injection, schedule: Q04DX002 (ip), vehicle: Klucel (hydroxypropylcellulose) (HPC)): 100 % of control
T/C [2]: 100 % of control
T/C (dose: 200.0 mg/kg/injection, schedule: Q04DX002 (ip), vehicle: Klucel (hydroxypropylcellulose) (HPC)): 100 % of control
T/C [3]: 99 % of control
T/C (dose: 400.0 mg/kg/injection, schedule: Q04DX002 (ip), vehicle: Klucel (hydroxypropylcellulose) (HPC)): 98 % of control

IP1c2ccccc2P2P(I)c3ccccc3P12 (configuration not stated)
T/C [4]: 102 % of control
T/C [5]: 108 % of control
T/C [6]: 105 % of control

C=CCN(CC=C)C(N)=Nc1ccccc1Cl
T/C (dose: 6.25 mg/kg/injection, schedule: Q01DX005 (ip), vehicle: saline): 103 % of control
T/C (dose: 12.5 mg/kg/injection, schedule: Q01DX005 (ip), vehicle: saline): 103 % of control
T/C [7]: 103 % of control

COc1ccc(/C=C/C(C)=O)c(OC)c1
T/C [1]: 108 % of control
T/C [2]: 101 % of control

CC[PH+](CC)CC.CC[PH+](CC)CC.[Au]
T/C (dose: 0.15 mg/kg/injection, schedule: Q01DX009 (ip), vehicle: water): 104 % of control and 91 % of control
T/C (dose: 0.31 mg/kg/injection, schedule: Q01DX009 (ip), vehicle: water): 100 % of control and 107 % of control
T/C (dose: 0.62 mg/kg/injection, schedule: Q01DX009 (ip), vehicle: water): 118 % of control and 122 % of control
T/C (dose: 1.25 mg/kg/injection, schedule: Q01DX009 (ip), vehicle: water): 118 % of control

O=C(CCSSc1ccccn1)ON1C(=O)CCC1=O
T/C [8]: 102 % of control
T/C [9]: 107 % of control
T/C [10]: 100 % of control

CC(C)Cn1c(Cl)c(/C=N\Nc2ccc([N+](=O)[O-])cc2)c2ccccc21
T/C (dose: 12.5 mg/kg/injection, schedule: Q01DX001 (ip), vehicle: saline): 94 % of control
T/C (dose: 25.0 mg/kg/injection, schedule: Q01DX001 (ip), vehicle: saline): 88 % of control
T/C (dose: 50.0 mg/kg/injection, schedule: Q01DX001 (ip), vehicle: saline): 96 % of control

c1ccc2c3c(ccc2c1)Oc1ccc2ccccc2c1C3CCC1c2c(ccc3ccccc23)Oc2ccc3ccccc3c21
T/C (dose: 60.0 mg/kg/injection, schedule: Q01DX005 (ip), vehicle: saline with Tween-80): 96 % of control
T/C (dose: 120.0 mg/kg/injection, schedule: Q01DX005 (ip), vehicle: saline with Tween-80): 95 % of control
T/C (dose: 240.0 mg/kg/injection, schedule: Q01DX005 (ip), vehicle: saline with Tween-80): 86 % of control

CCOS(=O)(=O)CS(C)(=O)=O
T/C [7]: 118 % of control
T/C (dose: 50.0 mg/kg/injection, schedule: Q01DX005 (ip), vehicle: saline): 118 % of control
T/C (dose: 100.0 mg/kg/injection, schedule: Q01DX005 (ip), vehicle: saline): 160 % of control and 170 % of control
T/C (dose: 150.0 mg/kg/injection, schedule: Q01DX005 (ip), vehicle: saline): 104 % of control

Cc1nc([N+](=O)[O-])c(Sc2nncc(-c3ccccc3)n2)n1C
T/C [4]: 111 % of control
T/C [5]: 104 % of control

CC(C)c1ccc(O)c(=O)cc1
T/C [11]: 99 % of control
T/C [12]: 102 % of control
T/C [13]: 114 % of control

C1COCCOCCOCCO1.[Cl][Sn]([Cl])([Cl])[Cl]
T/C [1]: 98 % of control
T/C [2]: 90 % of control

Cc1cccc(-n2c(C)nc3c(c(C)c(C)n3-c3ccccc3)c2=N)c1
T/C [14]: 97 % of control
T/C [15]: 100 % of control
T/C [16]: 99 % of control

CCCCCCCCCCNCCSSCc1ccc(OC)cc1
T/C [14]: 103 % of control
T/C [15]: 103 % of control
T/C [16]: 100 % of control

Cc1oc2c(C)c3oc(=O)cc(C)c3cc2c1CO
T/C (dose: 100.0 mg/kg/injection, schedule: Q05DX002 (ip), vehicle: Klucel (hydroxypropylcellulose) (HPC)): 92 % of control
T/C (dose: 200.0 mg/kg/injection, schedule: Q05DX002 (ip), vehicle: Klucel (hydroxypropylcellulose) (HPC)): 97 % of control
T/C (dose: 400.0 mg/kg/injection, schedule: Q05DX002 (ip), vehicle: Klucel (hydroxypropylcellulose) (HPC)): 95 % of control

CC1=CCC2C(C)(C)CCCC2(C)C1COC1OC(OCC2C(C)=CCC3C(C)(C)CCCC23C)C2C1=CCC1C(C)(C)CCCC21C (configuration not stated)
T/C (dose: 15.0 mg/kg/injection, schedule: Q01DX009 (ip), vehicle: Klucel (hydroxypropylcellulose) (HPC)): 96 % of control
T/C (dose: 30.0 mg/kg/injection, schedule: Q01DX009 (ip), vehicle: Klucel (hydroxypropylcellulose) (HPC)): 102 % of control
T/C (dose: 60.0 mg/kg/injection, schedule: Q01DX009 (ip), vehicle: Klucel (hydroxypropylcellulose) (HPC)): 93 % of control
T/C (dose: 120.0 mg/kg/injection, schedule: Q01DX009 (ip), vehicle: Klucel (hydroxypropylcellulose) (HPC)): 94 % of control

COC(=O)C1(CS(C)(=O)=O)NC(=S)NC(=O)C1C#N (configuration not stated)
T/C (dose: 60.0 mg/kg/injection, schedule: Q01DX005 (ip), vehicle: saline): 97 % of control
T/C (dose: 120.0 mg/kg/injection, schedule: Q01DX005 (ip), vehicle: saline): 91 % of control
T/C (dose: 240.0 mg/kg/injection, schedule: Q01DX005 (ip), vehicle: saline): 91 % of control

Nc1n[nH]c2ccccc12
T/C [4]: 104 % of control and 107 % of control
T/C [5]: 105 % of control and 107 % of control
T/C [6]: 117 % of control

CN1C(=O)N(C)C2CC(=O)c3c(ccc4c3ncn4C)N2C1=O (configuration not stated)
T/C (dose: 60.0 mg/kg/injection, schedule: Q01DX005 (ip), vehicle: Klucel (hydroxypropylcellulose) (HPC)): 104 % of control
T/C (dose: 120.0 mg/kg/injection, schedule: Q01DX005 (ip), vehicle: Klucel (hydroxypropylcellulose) (HPC)): 108 % of control
T/C (dose: 240.0 mg/kg/injection, schedule: Q01DX005 (ip), vehicle: Klucel (hydroxypropylcellulose) (HPC)): 114 % of control

N=c1nc2ccc3ccccc3c2nn1-c1ccc([N+](=O)[O-])cc1
T/C (dose: 1.5 mg/kg/injection, schedule: Q01DX009 (ip), vehicle: Klucel (hydroxypropylcellulose) (HPC)): 108 % of control
T/C (dose: 3.0 mg/kg/injection, schedule: Q01DX009 (ip), vehicle: Klucel (hydroxypropylcellulose) (HPC)): 106 % of control
T/C (dose: 6.0 mg/kg/injection, schedule: Q01DX009 (ip), vehicle: Klucel (hydroxypropylcellulose) (HPC)): 108 % of control
T/C (dose: 12.5 mg/kg/injection, schedule: Q01DX009 (ip), vehicle: Klucel (hydroxypropylcellulose) (HPC)): 103 % of control
T/C (dose: 25.0 mg/kg/injection, schedule: Q01DX009 (ip), vehicle: Klucel (hydroxypropylcellulose) (HPC)): 108 % of control
T/C [17]: 119 % of control

Cc1ccc(O)c(N)c1
T/C [12]: 94 % of control
T/C (dose: 50.0 mg/kg/injection, schedule: Q01DX009 (ip), vehicle: saline): 98 % of control
T/C [13]: 100 % of control
T/C (dose: 100.0 mg/kg/injection, schedule: Q01DX009 (ip), vehicle: saline): 104 % of control and 119 % of control
T/C (dose: 200.0 mg/kg/injection, schedule: Q01DX009 (ip), vehicle: saline with Tween-80): 105 % of control
T/C (dose: 200.0 mg/kg/injection, schedule: Q01DX009 (ip), vehicle: saline): 108 % of control and 95 % of control
T/C (dose: 400.0 mg/kg/injection, schedule: Q01DX009 (ip), vehicle: saline with Tween-80): 121 % of control

CCN(CC)CCCC(Nc1c2ccc(Cl)cc2nc2ccc(OC)cc12)c1cccc2ccccc12 (configuration not stated)
T/C (dose: 6.0 mg/kg/injection, schedule: Q01DX005 (ip), vehicle: Klucel (hydroxypropylcellulose) (HPC)): 103 % of control
T/C (dose: 12.0 mg/kg/injection, schedule: Q01DX005 (ip), vehicle: Klucel (hydroxypropylcellulose) (HPC)): 106 % of control
T/C [16]: 106 % of control

C/C(=N\NS(=O)(=O)c1ccc(C)cc1)c1c(C)noc1C
T/C [17]: 94 % of control
T/C (dose: 100.0 mg/kg/injection, schedule: Q01DX009 (ip), vehicle: Klucel (hydroxypropylcellulose) (HPC)): 99 % of control
T/C (dose: 200.0 mg/kg/injection, schedule: Q01DX009 (ip), vehicle: Klucel (hydroxypropylcellulose) (HPC)): 100 % of control

COc1ccc(-c2coc3cc(OC4OC(COC5OC(CO)C(O)C(O)C5O)C(O)C(O)C4O)cc(O)c3c2=O)cc1 (configuration not stated)
T/C [11]: 101 % of control
T/C [12]: 98 % of control
T/C [13]: 93 % of control

C/C(=N/N(C)C)c1ccc(Cl)cc1
T/C [8]: 100 % of control
T/C [2]: 108 % of control
T/C [9]: 108 % of control
T/C [3]: 106 % of control
T/C [10]: 106 % of control
